Source: patent US5362724A, “Thioalkylthio carbacephalosporin derivatives” (Shionogi & Co., Ltd., priority 1992, dated 1994)
Values after ≈ are worked out from the molar mass of the structure shown.

How the values were obtained:
E. coli JC-2 = test: In vitro antibacterial activity (MIC, two-fold agar dilution) against E. coli JC-2; type: cell-based; conditions: Escherichia coli, JC2
Procedure: (§1) The in vitro antibacterial activity of a compound as prepared in the foregoing Example was evaluated as follows. A compound to be tested was dissolved in 0.01N aqueous solution of sodium hydrogen carbonate and the solution was applied to an agar plate and the minimal inhibitory concentration (MIC) against each bacterium was measured by two-fold dilution method according to the standard method of the Japan Society of Chemotherapy.
(§2) In the assay, as a control compound, 7β-[(Z)-2-(2-amino-4-thiazolyl)-2-hydroxyiminoacetamido]-3-(1,2,3-triazol-4-yl)thiomethylthio-3-cephem-4-carboxylic acid (a thiomethylthio cephalosporin disclosed in U.S. patent application Ser. No. 07/729,413, filed on Jul. 12, 1991, now U.S. Pat. No. 5,214,037, and EPO Application Publication No. 0 467 647 A2) was used.
(§3) In the tables, Compound A is a compound of the invention and Compound B is a control compound.

E. coli EC-14 = test: In vitro antibacterial activity (MIC, two-fold agar dilution) against E. coli EC-14; type: cell-based; conditions: Escherichia coli, EC14
Procedure: as §1, §2, §3

E. coli SR377 = test: In vitro antibacterial activity (MIC, two-fold agar dilution) against E. coli SR377; type: cell-based; conditions: Escherichia coli
Procedure: as §1, §2, §3

E. coli SR73 = test: In vitro antibacterial activity (MIC, two-fold agar dilution) against E. coli SR73; type: cell-based; conditions: Escherichia coli
Procedure: as §1, §2, §3

K. pneumoniae SRI = test: In vitro antibacterial activity (MIC, two-fold agar dilution) against K. pneumoniae SRI; type: cell-based; conditions: Klebsiella pneumoniae
Procedure: as §1, §2, §3

E. cloacae SR233 = test: In vitro antibacterial activity (MIC, two-fold agar dilution) against E. cloacae SR233; type: cell-based; conditions: Enterobacter cloacae
Procedure: as §1, §2, §3

E. cloacae ATCC 13047 = test: In vitro antibacterial activity (MIC, two-fold agar dilution) against E. cloacae ATCC 13047; type: cell-based; conditions: Enterobacter cloacae, ATCC13047
Procedure: as §1, §2, §3

[1] = test system: S. maecescense ATCC 13880; test: In vitro antibacterial activity (MIC, two-fold agar dilution) against S. marcescense ATCC 13880; type: cell-based, Seratia marcescense
Procedure: as §1, §2, §3

[2] = Binding ability to plasma proteins; type: in vitro ADME; conditions: tentative value
[3] = In vivo pharmacokinetics, blood level in mice after administration; conditions: mouse, 10 mg/kg, 3 hr after administration
Procedure: The in vivo pharmacokinetics was also investigated in mice by measuring the blood level at 3 hr after administrating a test compound to a mouse (10 mg/kg).
as §2, §3

## Nc1nc(/C(=N/O)C(=O)N[C@@H]2C(=O)N3C(C(=O)O)=C(SCSc4c[nH]nn4)CC[C@H]23)cs1 [Compound A, 7β-[(Z)-2-(2-Aminothiazol-4-yl)-2-hydroxyiminoacetamido]-3-(1,2,3-triazol-4-ylthiomethylthio)-1-carba-3-cephem-4-carboxylic acid]
E. coli JC-2
  MIC: 0.05 µg/mL (≈ 0.101 µM)
E. coli EC-14
  MIC: 0.025 µg/mL (≈ 0.0503 µM)
E. coli SR377
  MIC: 0.2 µg/mL (≈ 0.403 µM)
E. coli SR73
  MIC: 0.39 µg/mL (≈ 0.785 µM)
K. pneumoniae SRI
  MIC: 0.025 µg/mL (≈ 0.0503 µM)
E. cloacae SR233
  MIC: 0.1 µg/mL (≈ 0.201 µM)
E. cloacae ATCC 13047
  MIC: 12.5 µg/mL (≈ 25.2 µM)
[1]
  MIC: 0.2 µg/mL (≈ 0.403 µM)
[2]
  fraction unbound: 0.1
[3]
  concentration at 3 h: 82000 ng/mL

## Nc1nc(/C(=N/O)C(=O)N[C@@H]2C(=O)N3C(C(=O)O)=C(SCSc4c[nH]nn4)CS[C@H]23)cs1 [Compound B, 7β-[(Z)-2-(2-amino-4-thiazolyl)-2-hydroxyiminoacetamido]-3-(1,2,3-triazol-4-yl)thiomethylthio-3-cephem-4-carboxylic acid]
E. coli JC-2
  MIC: 0.3 µg/mL (≈ 0.583 µM)
E. coli EC-14
  MIC: 0.1 µg/mL (≈ 0.194 µM)
E. coli SR377
  MIC: 0.8 µg/mL (≈ 1.55 µM)
E. coli SR73
  MIC: 1.6 µg/mL (≈ 3.11 µM)
K. pneumoniae SRI
  MIC: 0.1 µg/mL (≈ 0.194 µM)
E. cloacae SR233
  MIC: 0.8 µg/mL (≈ 1.55 µM)
E. cloacae ATCC 13047
  MIC: 100 µg/mL (≈ 194 µM)
[1]
  MIC: 3.2 µg/mL (≈ 6.22 µM)
[2]
  fraction unbound: 0.04
[3]
  concentration at 3 h: 18000 ng/mL
